According to ChEMBL document CHEMBL4725344, “Development of Highly Potent Carbazole Amphiphiles as Membrane-Targeting Antimicrobials for Treating Gram-Positive Bacterial Infections” (J Med Chem, 2020):
Values after ≈ are worked out from the molar mass of the structure shown.

Legend:
Staphylococcus aureus [1] = assay: Antibacterial activity against Staphylococcus aureus ATCC 29213 measured after 24 hrs by microplate reader analysis; format: functional
Staphylococcus aureus [2] = assay: Antibacterial activity against methicillin-resistant Staphylococcus aureus N315 measured after 24 hrs by microplate reader analysis; format: functional
Staphylococcus aureus [3] = assay: Antibacterial activity against methicillin-resistant Staphylococcus aureus NCTC 10442 measured after 24 hrs by microplate reader analysis; format: functional
[4] = Hemolytic activity in rabbit erythrocytes measured after 1 hr by microplate reader analysis; format: ADME, cell-based, Oryctolagus cuniculus, Erythrocyte
[5] = Solubility of the compound in water; format: physicochemical; details: buffer
Bacillus spizizenii = assay: Antibacterial activity against Bacillus subtilis ATCC 6633 measured after 24 hrs by microplate reader analysis; format: functional
Bacillus subtilis = assay: Antibacterial activity against Bacillus subtilis CMCC 63501 measured after 24 hrs by microplate reader analysis; format: functional
[6] = tested on: Staphylococcus epidermidis; assay: Antibacterial activity against Staphylococcus epidermidis ATCC 12228 measured after 24 hrs by microplate reader analysis; format: functional
[7] = tested on: Staphylococcus epidermidis; assay: Antibacterial activity against Staphylococcus epidermidis CMCC 26069 measured after 24 hrs by microplate reader analysis; format: functional
[8] = Selectivity ratio of MIC for Staphylococcus aureus ATCC 29213 to MIC for Bacillus subtilis ATCC 6633; format: functional
[9] = Selectivity ratio of MIC for Staphylococcus aureus ATCC 29213 to MIC for Bacillus subtilis CMCC 63501; format: functional
[10] = Selectivity ratio of MIC for Staphylococcus aureus ATCC 29213 to MIC for Staphylococcus epidermidis ATCC 12228; format: functional
[11] = Selectivity ratio of MIC for Staphylococcus aureus ATCC 29213 to MIC for Staphylococcus epidermidis CMCC 26069; format: functional
[12] = Selectivity ratio of MIC for methicillin-resistant Staphylococcus aureus N315 to MIC for Bacillus subtilis ATCC 6633; format: functional
[13] = Selectivity ratio of MIC for methicillin-resistant Staphylococcus aureus N315 to MIC for Bacillus subtilis CMCC 63501; format: functional
[14] = Selectivity ratio of MIC for methicillin-resistant Staphylococcus aureus N315 to MIC for Staphylococcus epidermidis ATCC 12228; format: functional
[15] = Selectivity ratio of MIC for methicillin-resistant Staphylococcus aureus N315 to MIC for Staphylococcus epidermidis CMCC 26069; format: functional
[16] = Selectivity ratio of MIC for methicillin-resistant Staphylococcus aureus NCTC 10442 to MIC for Bacillus subtilis ATCC 6633; format: functional
[17] = Selectivity ratio of MIC for methicillin-resistant Staphylococcus aureus NCTC 10442 to MIC for Bacillus subtilis CMCC 63501; format: functional
[18] = Selectivity ratio of MIC for methicillin-resistant Staphylococcus aureus NCTC 10442 to MIC for Staphylococcus epidermidis ATCC 12228; format: functional
[19] = Selectivity ratio of MIC for methicillin-resistant Staphylococcus aureus NCTC 10442 to MIC for Staphylococcus epidermidis CMCC 26069; format: functional

Compound	MIC (Staphylococcus aureus [1]) [mg/L]	MIC (Staphylococcus aureus [2]) [mg/L]	MIC (Staphylococcus aureus [3]) [mg/L]	HC50 at 1 h [4] [µg/mL]	also measured
NCC(O)COc1cccc2[nH]c3ccccc3c12 (stereo not drawn)	> 50	> 50	> 50	> 200	
CC(C)=CCn1c2ccccc2c2c(OCC(O)CN3CCSCC3)cccc21 (stereo not drawn)	> 50	> 50	> 50	> 200	
CN(C)CC(O)COc1cccc2[nH]c3ccccc3c12 (stereo not drawn)	> 50	> 50	> 50	> 200	
CC(C)=CCn1c2ccccc2c2c(OCC(O)CN(CCO)CCO)cccc21 (stereo not drawn)	25 (≈ 60.6 µM)	25 (≈ 60.6 µM)	25 (≈ 60.6 µM)	126	
CCCN(CCC)CC(O)COc1cccc2c1c1ccccc1n2CC=C(C)C (stereo not drawn)	> 50	> 50	> 50	> 200	
CCCn1c2ccccc2c2c(OCC3CO3)cccc21 (stereo not drawn)	> 50	> 50	> 50	> 200	
CCCCCCCCCn1c2ccccc2c2c(OCC3CO3)cccc21 (stereo not drawn)	> 50	> 50	> 50	> 200	
CC(C)=CCn1c2ccccc2c2c(OCC(O)CN3CCCC3)cccc21 (stereo not drawn)	12.5 (≈ 33 µM)	6.25 (≈ 16.5 µM)	6.25 (≈ 16.5 µM)	76.2	
CC(C)=CCn1c2ccccc2c2c(OCC3CO3)cccc21 (stereo not drawn)	> 50	> 50	> 50	> 200	
CCCCCCCCCCNCC(O)COc1cccc2c1c1ccccc1n2CC=C(C)C (stereo not drawn)	6.25 (≈ 13.4 µM)	1.56 (≈ 3.36 µM)	3.12 (≈ 6.72 µM)	> 200	solubility [5]: Insoluble
CCCCCCCCNCC(O)COc1cccc2c1c1ccccc1n2CC=C(C)C (stereo not drawn)	6.25 (≈ 14.3 µM)	1.56 (≈ 3.57 µM)	1.56 (≈ 3.57 µM)	> 200	solubility [5]: Insoluble
CC(C)=CCn1c2ccccc2c2c(OCC(O)CNC(=O)[C@@H](N)CCCNC(=N)N)cccc21 (stereo partly drawn)	6.25 (≈ 13 µM)	6.25 (≈ 13 µM)	6.25 (≈ 13 µM)	> 200	MIC (Bacillus spizizenii): 3.12 mg/L (≈ 6.5 µM); MIC (Bacillus subtilis): 3.12 mg/L (≈ 6.5 µM); MIC [6]: 3.12 mg/L (≈ 6.5 µM); MIC [7]: 3.12 mg/L (≈ 6.5 µM); Selectivity ratio [8]: 2; Selectivity ratio [9]: 2; Selectivity ratio [10]: 2; Selectivity ratio [11]: 2; Selectivity ratio [12]: 2; Selectivity ratio [13]: 2; Selectivity ratio [14]: 2; Selectivity ratio [15]: 2; Selectivity ratio [16]: 2; Selectivity ratio [17]: 2; Selectivity ratio [18]: 2; Selectivity ratio [19]: 2
c1ccc2c(c1)[nH]c1cccc(OCC3CO3)c12 (stereo not drawn)	> 50	> 50	> 50	> 200	
CCCCCCCn1c2ccccc2c2c(OCC3CO3)cccc21 (stereo not drawn)	> 50	> 50	> 50	> 200	
CCCC[N+](C)(CCCC)CC(O)COc1cccc2c1c1ccccc1n2CC=C(C)C.[I-] (stereo not drawn)	1.56	1.56	1.56	61.3	
CC(C)=CCn1c2ccccc2c2c(OCC(O)CN)cccc21 (stereo not drawn)	12.5 (≈ 38.5 µM)	6.25 (≈ 19.3 µM)	6.25 (≈ 19.3 µM)	> 200	
N=C(N)NCC(O)COc1cccc2[nH]c3ccccc3c12 (stereo not drawn)	50 (≈ 168 µM)	50 (≈ 168 µM)	50 (≈ 168 µM)	> 200	
CCCCCNCC(O)COc1cccc2c1c1ccccc1n2CC=C(C)C (stereo not drawn)	12.5 (≈ 31.7 µM)	6.25 (≈ 15.8 µM)	12.5 (≈ 31.7 µM)	> 200	

Compound	MIC (Staphylococcus aureus [1]) [mg/L]	MIC (Staphylococcus aureus [2]) [mg/L]	MIC (Staphylococcus aureus [3]) [mg/L]	HC50 at 1 h [4] [µg/mL]	also measured
CN(C)CC(O)COc1cccc2c1c1ccccc1n2C (stereo not drawn)	> 50	> 50	> 50	> 200	
CCCNCC(O)COc1cccc2c1c1ccccc1n2CC=C(C)C (stereo not drawn)	6.25 (≈ 17.1 µM)	3.12 (≈ 8.53 µM)	6.25 (≈ 17.1 µM)	> 200	
CC(C)=CCn1c2ccccc2c2c(OCC(O)CN3CCN(C)CC3)cccc21 (stereo not drawn)	12.5 (≈ 30.7 µM)	12.5 (≈ 30.7 µM)	12.5 (≈ 30.7 µM)	70	
CC(C)=CCn1c2ccccc2c2c(OCC(O)CN3CCCCC3)cccc21 (stereo not drawn)	6.25 (≈ 15.9 µM)	3.12 (≈ 7.96 µM)	3.12 (≈ 7.96 µM)	81.8	
CCCn1c2ccccc2c2c(OCC(O)CN(C)C)cccc21 (stereo not drawn)	50 (≈ 153 µM)	50 (≈ 153 µM)	50 (≈ 153 µM)	> 200	
CC(C)=CCn1c2ccccc2c2c(OCC(O)CN(C)C)cccc21 (stereo not drawn)	6.25 (≈ 17.7 µM)	3.12 (≈ 8.87 µM)	3.12 (≈ 8.87 µM)	119	
CCCCCCCCCn1c2ccccc2c2c(OCC(O)CN(C)C)cccc21 (stereo not drawn)	12.5 (≈ 30.4 µM)	6.25 (≈ 15.2 µM)	6.25 (≈ 15.2 µM)	128	
CCNCC(O)COc1cccc2c1c1ccccc1n2CC=C(C)C (stereo not drawn)	6.25 (≈ 17.7 µM)	3.12 (≈ 8.87 µM)	6.25 (≈ 17.7 µM)	156	
CCCCCn1c2ccccc2c2c(OCC(O)CN(C)C)cccc21 (stereo not drawn)	12.5 (≈ 35.3 µM)	6.25 (≈ 17.6 µM)	6.25 (≈ 17.6 µM)	152	
CC[N+](C)(CC)CC(O)COc1cccc2c1c1ccccc1n2CC=C(C)C.[I-] (stereo not drawn)	6.25	6.25	6.25	142	
CCCCCn1c2ccccc2c2c(OCC3CO3)cccc21 (stereo not drawn)	> 50	> 50	> 50	> 200	
CCCCCCCn1c2ccccc2c2c(OCC(O)CN(C)C)cccc21 (stereo not drawn)	6.25 (≈ 16.3 µM)	12.5 (≈ 32.7 µM)	12.5 (≈ 32.7 µM)	182	
CC(C)=CCn1c2ccccc2c2c(OCC(O)CNC(=O)[C@@H](N)CCCCN)cccc21 (stereo partly drawn)	25 (≈ 55.2 µM)	12.5 (≈ 27.6 µM)	25 (≈ 55.2 µM)	> 200	MIC (Bacillus spizizenii): 6.25 mg/L (≈ 13.8 µM); MIC (Bacillus subtilis): 6.25 mg/L (≈ 13.8 µM); MIC [6]: 6.25 mg/L (≈ 13.8 µM); MIC [7]: 6.25 mg/L (≈ 13.8 µM); Selectivity ratio [8]: 2; Selectivity ratio [9]: 2; Selectivity ratio [10]: 2; Selectivity ratio [11]: 2; Selectivity ratio [12]: 2; Selectivity ratio [13]: 2; Selectivity ratio [14]: 2; Selectivity ratio [15]: 2; Selectivity ratio [16]: 2; Selectivity ratio [17]: 2; Selectivity ratio [18]: 2; Selectivity ratio [19]: 2
CCCCN(CCCC)CC(O)COc1cccc2c1c1ccccc1n2CC=C(C)C (stereo not drawn)	> 50	> 50	> 50	> 200	
Cn1c2ccccc2c2c(OCC3CO3)cccc21 (stereo not drawn)	> 50	> 50	> 50	> 200	
CC(C)NCC(O)COc1cccc2[nH]c3ccccc3c12 (stereo not drawn) [CARAZOLOL]	> 50	> 50	> 50	> 200	
CCN(CC)CC(O)COc1cccc2c1c1ccccc1n2CC=C(C)C (stereo not drawn)	12.5 (≈ 32.8 µM)	12.5 (≈ 32.8 µM)	12.5 (≈ 32.8 µM)	88.7	
CC(C)=CCn1c2ccccc2c2c(OCC(O)CNC(C)C)cccc21 (stereo not drawn)	6.25 (≈ 17.1 µM)	3.12 (≈ 8.53 µM)	3.12 (≈ 8.53 µM)	160	
